# In ChEMBL document CHEMBL1201862, “PubChem BioAssay data set” (2004):
# The source made the active and inactive calls.
# Tests used:
# [1] = target: Multidrug resistance protein CDR2 (Candida albicans (strain SC5314 / ATCC MYA-2876) (Yeast), UniProt P78595); assay: inhibition of Nile Red efflux via Candida CDR2 – S. cerevisiae AD1-8u, singleplex, Cherry Pick1 hits, dose response (AID 588604); type: functional
# [2] = blockers of SFLLRN-triggered platelet ATP secretion – cell-based, human platelets, luminescence, dry powder, dose response (AID 493100); type: functional
# [3] = Luminescence Cell-Based Dose Response Follow up to Identify Inhibitors of Platelet Dense Granule Release. [Related pubchem assays (depositor defined):AID1663, AID1678, AID2398]; type: functional
# [4] = target: T1, Sphingosine 1-phosphate receptor 4 (Homo sapiens, UniProt O95977); assay: Late-stage fluorescence-based dose-response cell-based counterscreen assay to identify agonists of the Sphingosine 1-Phosphate Receptor 3 (S1P3): Sphingosine 1-Phosphate Receptor 4 (S1P4) agonist assay.; type: functional
# T1 sequence (O95977 whole entry): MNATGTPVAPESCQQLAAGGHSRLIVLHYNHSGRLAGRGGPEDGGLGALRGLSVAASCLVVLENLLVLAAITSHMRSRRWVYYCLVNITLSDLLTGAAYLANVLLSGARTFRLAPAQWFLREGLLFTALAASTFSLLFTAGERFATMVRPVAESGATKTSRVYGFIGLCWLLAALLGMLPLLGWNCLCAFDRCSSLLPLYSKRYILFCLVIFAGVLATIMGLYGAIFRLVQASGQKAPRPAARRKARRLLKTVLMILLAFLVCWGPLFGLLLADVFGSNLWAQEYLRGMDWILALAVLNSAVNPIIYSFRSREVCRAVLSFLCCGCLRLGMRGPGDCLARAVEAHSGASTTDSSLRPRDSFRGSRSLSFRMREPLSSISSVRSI
# [5] = target: Sphingosine 1-phosphate receptor 2 (Homo sapiens, UniProt O95136); assay: Late-stage fluorescence-based dose-response cell-based counterscreen assay to identify agonists of the Sphingosine 1-Phosphate Receptor 3 (S1P3): Sphingosine 1-Phosphate Receptor 2 (S1P2) agonist assay.; type: functional
# Sphingosine 1-phosphate receptor 2, sequence (O95136 whole entry): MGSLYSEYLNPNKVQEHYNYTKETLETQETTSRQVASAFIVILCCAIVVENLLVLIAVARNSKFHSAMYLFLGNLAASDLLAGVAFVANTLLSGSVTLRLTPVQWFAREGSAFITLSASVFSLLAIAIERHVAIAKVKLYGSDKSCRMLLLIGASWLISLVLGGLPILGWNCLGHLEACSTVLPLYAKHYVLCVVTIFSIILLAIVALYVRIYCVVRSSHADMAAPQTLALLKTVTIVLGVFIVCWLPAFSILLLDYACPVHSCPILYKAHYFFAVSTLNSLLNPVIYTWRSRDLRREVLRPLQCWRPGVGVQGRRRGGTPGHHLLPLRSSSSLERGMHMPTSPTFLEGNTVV
# [6] = target: T2, DNA dC->dU-editing enzyme APOBEC-3G (Homo sapiens, UniProt Q9HC16); assay: SAR analysis of small molecule inhibitors of APOBEC3G DNA Deaminase via a fluorescence-based single-stranded DNA deaminase assay - Set 2.; type: functional; conditions: read-out: IC50_Mean
# T2 sequence (Q9HC16 whole entry): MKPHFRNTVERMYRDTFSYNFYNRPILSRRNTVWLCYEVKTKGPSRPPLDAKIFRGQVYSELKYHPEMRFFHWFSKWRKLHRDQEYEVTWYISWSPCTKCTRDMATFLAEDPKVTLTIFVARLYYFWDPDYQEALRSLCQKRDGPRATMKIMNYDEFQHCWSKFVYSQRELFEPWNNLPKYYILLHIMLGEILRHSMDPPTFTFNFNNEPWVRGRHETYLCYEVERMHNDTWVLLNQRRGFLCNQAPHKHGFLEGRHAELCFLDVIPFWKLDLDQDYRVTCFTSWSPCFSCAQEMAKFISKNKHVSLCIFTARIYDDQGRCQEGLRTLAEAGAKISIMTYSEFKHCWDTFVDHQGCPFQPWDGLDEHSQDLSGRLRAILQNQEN
# [7] = target: T3, DNA dC->dU-editing enzyme APOBEC-3A (Homo sapiens, UniProt P31941); assay: A3A deaminase inhibition for selectivity – biochemical, dose response (AID 504722); type: functional
# T3 sequence (P31941 whole entry): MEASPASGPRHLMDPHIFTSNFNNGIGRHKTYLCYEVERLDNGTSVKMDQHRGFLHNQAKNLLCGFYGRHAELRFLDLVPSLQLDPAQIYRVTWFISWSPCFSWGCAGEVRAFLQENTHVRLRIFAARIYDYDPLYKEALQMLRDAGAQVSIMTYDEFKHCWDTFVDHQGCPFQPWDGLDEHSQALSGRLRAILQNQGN
# [8] = target: T2, DNA dC->dU-editing enzyme APOBEC-3G; assay: Dose Response confirmation of small molecule APOBEC3G DNA Deaminase Inhibitors via a fluorescence-based single-stranded DNA deaminase assay. [Related pubchem assays (depositor defined):AID493012, AID493028]; type: functional
# [9] = target: T3, DNA dC->dU-editing enzyme APOBEC-3A; assay: SAR analysis of small molecule inhibitors of APOBEC3A DNA Deaminase via a fluorescence-based single-stranded DNA deaminase assay - Set 2.; type: functional; conditions: read-out: IC50_Mean
# [10] = target: Large T antigen (Simian virus 40, UniProt P03070); type: functional, Betapolyomavirus macacae;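 also: Confirmatory-stage PubChem screen for compounds that inhibit SV40 T antigen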
# Large T antigen, sequence (P03070 whole entry, the tested form may be a part): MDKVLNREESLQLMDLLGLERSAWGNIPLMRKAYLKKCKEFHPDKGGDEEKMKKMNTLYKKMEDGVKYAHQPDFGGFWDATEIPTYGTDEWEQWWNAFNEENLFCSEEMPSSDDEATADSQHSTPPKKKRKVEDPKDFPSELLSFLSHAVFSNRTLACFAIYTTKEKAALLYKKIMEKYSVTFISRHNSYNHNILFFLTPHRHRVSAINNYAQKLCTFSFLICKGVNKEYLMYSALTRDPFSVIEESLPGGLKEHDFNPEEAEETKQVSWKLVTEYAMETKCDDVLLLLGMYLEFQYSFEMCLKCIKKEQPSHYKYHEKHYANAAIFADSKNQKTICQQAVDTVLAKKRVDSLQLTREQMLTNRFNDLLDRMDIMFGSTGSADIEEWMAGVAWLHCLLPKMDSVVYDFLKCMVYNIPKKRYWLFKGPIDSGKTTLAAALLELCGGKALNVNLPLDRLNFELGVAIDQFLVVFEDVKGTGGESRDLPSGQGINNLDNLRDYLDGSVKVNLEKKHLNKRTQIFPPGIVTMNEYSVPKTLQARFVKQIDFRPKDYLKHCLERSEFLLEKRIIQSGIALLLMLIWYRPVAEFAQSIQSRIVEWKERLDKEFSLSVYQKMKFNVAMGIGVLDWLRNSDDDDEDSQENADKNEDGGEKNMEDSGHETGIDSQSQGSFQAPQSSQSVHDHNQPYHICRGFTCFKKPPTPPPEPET
# [11] = target: T4, Carboxy-terminal domain RNA polymerase II polypeptide A small phosphatase 1 (Homo sapiens, UniProt Q9GZU7); assay: CTDSP1 inhibitors, concentration-response, biochemical, absorbance readout, ultra-high-throughput screen actives (AID 540297); type: functional
# T4 sequence (Q9GZU7 whole entry): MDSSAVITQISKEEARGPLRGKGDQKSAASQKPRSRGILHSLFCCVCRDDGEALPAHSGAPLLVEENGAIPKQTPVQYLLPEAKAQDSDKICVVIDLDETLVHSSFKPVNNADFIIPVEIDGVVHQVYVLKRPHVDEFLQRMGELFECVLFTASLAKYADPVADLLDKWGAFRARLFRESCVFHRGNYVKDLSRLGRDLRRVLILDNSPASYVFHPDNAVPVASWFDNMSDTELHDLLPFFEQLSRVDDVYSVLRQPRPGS
# [12] = target: Beta-adrenergic receptor kinase 1 (Homo sapiens, UniProt P25098); assay: aptamer displacement from bead-bound GRK2 – biochemical, cherry pick 1, bead flow cytometry, dose response (AID 504500)
# [13] = system: Vero; assay: viability of Vero cells under compound – cytotoxicity control for flavivirus capping enzyme inhibitors (AID 588742); type: functional; conditions: Chlorocebus sabaeus
# [14] = target: Genome polyprotein (dengue virus type 2, UniProt P29990); assay: flavivirus cap methylation enzyme inhibition – biochemical, confirmation dose response, primary screen (AID 588689); type: functional
# [15] = target: NS3 (Hepatitis C virus, UniProt A3EZJ3); assay: PubChem AID 2173; parameters: species or system Hepacivirus hominis
# [16] = target: DNA topoisomerase (Yersinia pestis, UniProt A0A2S9PM60); assay: Yersinia topoisomerase I cleavage product accumulation – biochemical, cherry-pick, dose response (AID 588525)
# [17] = system: Streptococcus; assay: GAS UMAA2166 growth inhibition – luminescence, BacTiterGlo, counter-screen for streptokinase expression inhibitor project, dose response (AID 1915); type: functional, organism-based;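 also: potency for reduction of bacterial viability or growth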
# [18] = system: Streptococcus sp. 'group A'; assay: Streptococcus pyogenes SK(-)GAS viability under kanamycin – luminescence, BacTiterGlo, confirmation, counter-screen for streptokinase expression inhibitor project, dose response (AID 1900); type: functional, organism-based
# [19] = target: T5, Streptokinase A (Streptococcus pyogenes serotype M1, UniProt P10520); assay: viability-normalized secreted streptokinase activity reduction – plasminogen activation absorbance, OD405, dose response (AID 1914); type: functional, Streptococcus pyogenes M1 GAS;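 also: secreted streptokinase activity via plasminogen activation per viability signal from cell pellet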
# T5 sequence (P10520 whole entry): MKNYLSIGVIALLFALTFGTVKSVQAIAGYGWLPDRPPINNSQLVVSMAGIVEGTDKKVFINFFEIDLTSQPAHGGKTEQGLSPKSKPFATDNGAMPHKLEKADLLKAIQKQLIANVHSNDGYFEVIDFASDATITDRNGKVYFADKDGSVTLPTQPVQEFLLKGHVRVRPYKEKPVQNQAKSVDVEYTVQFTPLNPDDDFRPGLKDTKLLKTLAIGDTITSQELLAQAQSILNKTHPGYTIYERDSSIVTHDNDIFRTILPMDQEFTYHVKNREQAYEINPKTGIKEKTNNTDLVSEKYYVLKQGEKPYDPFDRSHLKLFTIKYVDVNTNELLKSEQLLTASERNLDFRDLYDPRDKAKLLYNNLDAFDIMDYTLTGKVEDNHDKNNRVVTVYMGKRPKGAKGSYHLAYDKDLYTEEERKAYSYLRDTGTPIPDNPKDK
# [20] = target: T6, High affinity choline transporter 1 (Homo sapiens, UniProt Q9GZV3); assay: human choline transporter blockers, potency – cell-based, 10-point CRC, membrane potential dye, dose response (AID 588401); type: functional;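 also: membrane potential dye fluorescence of choline-evoked depolarization via CHT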
# T6 sequence (Q9GZV3 whole entry): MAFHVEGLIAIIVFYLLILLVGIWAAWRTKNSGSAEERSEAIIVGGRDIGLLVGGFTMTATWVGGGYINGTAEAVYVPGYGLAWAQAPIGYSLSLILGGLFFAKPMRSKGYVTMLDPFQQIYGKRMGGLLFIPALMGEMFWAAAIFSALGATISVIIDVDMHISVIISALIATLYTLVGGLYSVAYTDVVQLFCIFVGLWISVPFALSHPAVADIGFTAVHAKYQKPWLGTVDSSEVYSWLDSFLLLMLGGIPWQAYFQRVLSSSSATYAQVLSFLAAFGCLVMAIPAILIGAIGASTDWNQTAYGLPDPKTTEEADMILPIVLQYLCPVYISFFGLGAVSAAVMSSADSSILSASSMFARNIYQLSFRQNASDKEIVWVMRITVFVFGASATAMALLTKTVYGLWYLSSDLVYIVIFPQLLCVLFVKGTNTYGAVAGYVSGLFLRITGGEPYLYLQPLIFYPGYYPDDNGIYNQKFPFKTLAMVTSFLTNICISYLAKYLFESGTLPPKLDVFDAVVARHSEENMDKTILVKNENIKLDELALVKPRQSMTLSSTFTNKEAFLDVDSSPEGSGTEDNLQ
# [21] = target: T6, High affinity choline transporter 1; assay: human choline transporter blockers, potency – cell-based, 5-point CRC, membrane potential dye, dose response (AID 504840); type: functional
# [22] = target: Phospholipase D1 (Homo sapiens, UniProt Q13393); assay: cellular phospholipase D1 inhibition IC50 – cell-based, dose response (AID 602151); type: functional;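 also: cellular PLD1 assay in Calu-1 cells stimulated with PMA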
# [23] = target: Phospholipase D2 (Homo sapiens, UniProt O14939); assay: cellular phospholipase D2 inhibition IC50 – cell-based, dose response (AID 602147); type: functional;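 also: cellular assay in HEK293 cells overexpressing GFP-tagged PLD2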
# [24] = target: Prothrombin (Bos taurus, UniProt P00735); assay: thrombin protease inhibitors – biochemical, fluorescence polarization, uHTS hits, dose response (AID 602369); type: functional
# [25] = target: Melanocortin receptor 4 (Homo sapiens, UniProt P32245); assay: inhibitors of MC4R cAMP signaling – cell-based, TR-FRET, biased antagonists, dose response (AID 602298); type: functional;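 also: antagonist potency against agonist-stimulated cAMP production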
# [26] = target: 72 kDa type IV collagenase (Homo sapiens, UniProt P08253); assay: Dose Response validation of uHTS RPN11 inhibitor hits using a MMP-2 Fluorescence assay.; type: functional
# [27] = cAMP pathway inhibition in counterscreen cell line – TR-FRET cAMP detection, counter-screen for MC4R biased antagonist project, dose response (AID 602305); type: functional, cell-based;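 also: U2OS cells stimulated with forskolin near its EC80 as the cAMP inducer; potency is for inhibition of forskolin-stimulated cAMP signaling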
# [28] = target: 26S proteasome non-ATPase regulatory subunit 14 (Homo sapiens, UniProt O00487); assay: inhibition of proteasome subunit RPN11 – biochemical, fluorescence polarization, uHTS hits, confirmation (AID 602368); type: functional
# 26S proteasome non-ATPase regulatory subunit 14, sequence (O00487 whole entry, the tested form may be a part): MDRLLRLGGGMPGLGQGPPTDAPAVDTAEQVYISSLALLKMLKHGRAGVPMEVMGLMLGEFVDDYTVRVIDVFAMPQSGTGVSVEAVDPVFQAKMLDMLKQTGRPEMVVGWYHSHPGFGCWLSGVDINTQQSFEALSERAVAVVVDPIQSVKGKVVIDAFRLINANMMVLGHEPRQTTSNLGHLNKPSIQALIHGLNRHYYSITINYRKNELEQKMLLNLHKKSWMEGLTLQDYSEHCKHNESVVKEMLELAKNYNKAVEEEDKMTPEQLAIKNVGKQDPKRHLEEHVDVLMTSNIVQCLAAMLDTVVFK
# [29] = target: Disintegrin and metalloproteinase domain-containing protein 17 (Homo sapiens, UniProt P78536); assay: exosite inhibitors of ADAM17, dose response, biochemical (AID 743260)
# [30] = inhibition of ADAM10 peptide cleavage – biochemical, FRET peptide substrate, recombinant human ADAM10, selectivity assay for ADAM17 exosite inhibitor project, dose response (AID 743259);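 also: ADAM10 enzyme cleaving a FRET peptide substrate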
# [31] = target: T7, V-type proton ATPase subunit c' (Saccharomyces cerevisiae S288c, UniProt P32842); assay: Dose Response with BCECF Assay for V-ATPase inhibitors that increase vacuolar pH, Powder Set 1.; type: functional; conditions: read-out: EC50_MICROM
# T7 sequence (P32842 whole entry): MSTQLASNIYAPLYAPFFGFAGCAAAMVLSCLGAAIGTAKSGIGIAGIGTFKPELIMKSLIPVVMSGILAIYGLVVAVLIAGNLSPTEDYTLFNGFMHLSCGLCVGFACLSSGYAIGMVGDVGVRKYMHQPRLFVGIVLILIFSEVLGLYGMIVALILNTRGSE
# [32] = target: T7, V-type proton ATPase subunit c'; assay: Dose Response of Small Molecules that Regulate V-ATPase Proton Transport in Yeast using pHLuorin, Powder Set1.; type: functional; conditions: read-out: EC50_MICROM
# [33] = target: Serine/threonine-protein kinase Chk1 (Homo sapiens, UniProt O14757); type: functional;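 also: measured as one member of a kinome-wide kinase profiling panel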
# [34] = target: Tyrosine-protein kinase JAK2 (Homo sapiens, UniProt O60674); type: functional;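 also: JAK2 tested as one member of a kinase panel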
# [35] = target: Fibroblast growth factor receptor 3 (Homo sapiens, UniProt P22607); type: functional
# [36] = target: Tyrosine-protein kinase Fer (Homo sapiens, UniProt P16591); type: functional;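 also: FER tested as one member of a kinome panel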
# [37] = target: 5'-AMP-activated protein kinase catalytic subunit alpha-1 (Homo sapiens, UniProt Q13131); type: functional
# [38] = target: Dual specificity mitogen-activated protein kinase kinase 2 (Homo sapiens, UniProt P36507); assay: Navigating the Kinome. Panel member name: MAP2K2; type: functional
# [39] = target: Dual specificity mitogen-activated protein kinase kinase 1 (Homo sapiens, UniProt Q02750); assay: Navigating the Kinome. Panel member name: MAP2K1; type: functional
# Dual specificity mitogen-activated protein kinase kinase 1, sequence (Q02750 whole entry): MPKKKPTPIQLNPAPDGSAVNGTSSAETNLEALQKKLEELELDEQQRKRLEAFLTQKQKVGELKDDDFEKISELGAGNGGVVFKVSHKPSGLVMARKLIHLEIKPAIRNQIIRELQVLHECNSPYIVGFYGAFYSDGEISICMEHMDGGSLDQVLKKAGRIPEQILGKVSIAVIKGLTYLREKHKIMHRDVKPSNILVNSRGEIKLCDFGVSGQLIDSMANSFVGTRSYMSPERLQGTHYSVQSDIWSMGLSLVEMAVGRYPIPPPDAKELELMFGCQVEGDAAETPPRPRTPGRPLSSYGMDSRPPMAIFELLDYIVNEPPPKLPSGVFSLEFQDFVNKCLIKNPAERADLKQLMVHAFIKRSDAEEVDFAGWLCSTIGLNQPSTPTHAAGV
# [40] = target: STE20-like serine/threonine-protein kinase (Homo sapiens, UniProt Q9H2G2); type: functional
# STE20-like serine/threonine-protein kinase, sequence (Q9H2G2 whole entry): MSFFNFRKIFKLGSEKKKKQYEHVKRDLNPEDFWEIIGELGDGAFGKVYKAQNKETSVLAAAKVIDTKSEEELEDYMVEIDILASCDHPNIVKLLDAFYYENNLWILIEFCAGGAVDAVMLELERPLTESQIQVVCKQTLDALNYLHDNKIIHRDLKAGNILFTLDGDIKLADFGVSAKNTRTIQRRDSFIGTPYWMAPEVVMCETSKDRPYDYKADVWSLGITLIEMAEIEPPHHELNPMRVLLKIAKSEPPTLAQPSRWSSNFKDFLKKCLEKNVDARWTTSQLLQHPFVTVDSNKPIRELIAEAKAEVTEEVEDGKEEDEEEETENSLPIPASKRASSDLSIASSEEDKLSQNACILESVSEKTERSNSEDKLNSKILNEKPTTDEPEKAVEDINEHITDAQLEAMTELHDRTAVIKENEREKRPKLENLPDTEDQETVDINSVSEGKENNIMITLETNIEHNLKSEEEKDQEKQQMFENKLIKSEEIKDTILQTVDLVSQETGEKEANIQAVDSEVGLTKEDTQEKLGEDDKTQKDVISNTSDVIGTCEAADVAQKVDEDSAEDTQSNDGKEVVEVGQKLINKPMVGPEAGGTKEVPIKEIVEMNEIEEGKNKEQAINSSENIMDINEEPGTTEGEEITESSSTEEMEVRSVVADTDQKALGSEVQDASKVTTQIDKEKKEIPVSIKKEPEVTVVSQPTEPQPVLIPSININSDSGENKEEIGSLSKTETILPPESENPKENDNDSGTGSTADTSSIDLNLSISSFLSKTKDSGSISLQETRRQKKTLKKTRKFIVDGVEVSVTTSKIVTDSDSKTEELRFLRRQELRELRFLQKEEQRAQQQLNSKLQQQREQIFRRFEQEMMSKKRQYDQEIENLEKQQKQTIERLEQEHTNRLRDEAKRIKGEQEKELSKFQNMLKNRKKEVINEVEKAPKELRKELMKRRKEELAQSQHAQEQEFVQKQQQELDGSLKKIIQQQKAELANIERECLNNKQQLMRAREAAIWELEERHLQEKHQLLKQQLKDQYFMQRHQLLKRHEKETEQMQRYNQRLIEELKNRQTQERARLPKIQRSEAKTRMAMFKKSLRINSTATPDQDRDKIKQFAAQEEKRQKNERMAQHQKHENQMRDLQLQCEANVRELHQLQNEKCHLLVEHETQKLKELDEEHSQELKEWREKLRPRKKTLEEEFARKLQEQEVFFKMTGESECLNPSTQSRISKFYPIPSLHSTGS
# [41] = target: Tyrosine-protein kinase BTK (Homo sapiens, UniProt Q06187); type: functional
# Tyrosine-protein kinase BTK, sequence (Q06187 whole entry): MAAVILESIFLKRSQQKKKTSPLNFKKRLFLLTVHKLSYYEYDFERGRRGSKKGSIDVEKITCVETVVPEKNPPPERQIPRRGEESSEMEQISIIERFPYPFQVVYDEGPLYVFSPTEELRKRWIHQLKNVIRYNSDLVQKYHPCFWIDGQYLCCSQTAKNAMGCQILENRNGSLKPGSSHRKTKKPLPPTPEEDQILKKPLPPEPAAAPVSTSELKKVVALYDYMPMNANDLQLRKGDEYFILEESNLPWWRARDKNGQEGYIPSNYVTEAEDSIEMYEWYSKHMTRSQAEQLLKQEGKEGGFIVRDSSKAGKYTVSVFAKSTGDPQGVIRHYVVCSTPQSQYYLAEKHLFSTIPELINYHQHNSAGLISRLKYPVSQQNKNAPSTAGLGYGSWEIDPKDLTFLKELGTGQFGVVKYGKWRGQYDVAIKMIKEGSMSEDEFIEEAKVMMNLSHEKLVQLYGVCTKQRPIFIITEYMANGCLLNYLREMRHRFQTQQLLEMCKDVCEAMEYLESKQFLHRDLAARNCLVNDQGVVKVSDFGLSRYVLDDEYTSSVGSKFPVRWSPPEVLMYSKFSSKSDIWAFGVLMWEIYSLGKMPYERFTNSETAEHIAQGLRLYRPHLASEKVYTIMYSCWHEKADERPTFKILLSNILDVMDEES
structure (smiles),measurement,setting,value
COc1ccc2c(-c3ccc(OCCN4CCOCC4)cc3)c(-c3ccccc3OC)sc2c1,EC50,[1],13.3 µM (active)
Cc1ccc(-c2c(C#N)c(N)n(-c3ccccc3C)c(=O)c2C#N)cc1,AC50,[2],12.6 µM (active)
same,EC50,[3],2.03 µM (active)
COc1ccc(-c2cc(C(=O)N(C3CCCCC3)C3CCCCC3)no2)cc1,EC50,[4],> 50 µM (inactive)
same,EC50,[5],> 50 µM (inactive)
CCCn1c(=O)c2ccccc2n2c(=S)[nH]nc12,IC50,[6],> 99 µM (inactive)
same,IC50,[7],> 100 µM (inactive)
same,IC50,[8],2.87 µM (active)
same,IC50,[9],> 99 µM (inactive)
same,IC50,[10],18.2 µM (active)
O=C(O)C1CC(=O)N(c2ccc3c(c2)OCCO3)C1 (stereo unspecified),IC50,[11],6.73 µM (active)
same,EC50,[12],30.9 µM (inactive)
CCCOc1ccc(C(=O)C2=C(O)C(=O)N(c3ccccn3)C2c2ccc(OC)cc2)cc1C (stereo unspecified),CC50,[13],> 40 µM (active)
same,IC50,[14],74.3 µM (active)
same,IC50,[15],5.74 µM (active)
same,AC50,[16],5.07 µM (active)
same,EC50,[17],38.6 µM (active)
same,EC50,[18],3.78 µM (active)
same,EC50,[19],103 µM (active)
CCCCC1C(=O)CC[C@H]2[C@@H]1CC(=O)[C@@H]2C/C=C\CCCC(=O)O (stereo partly specified),IC50,[20],2.38 µM (active)
same,IC50,[21],2.13 µM (active)
Cn1c(=O)n(C2CCN(CCNC(=O)c3ccc4ccccc4c3)CC2)c2ccccc21,IC50,[22],1.5 µM (active)
same,IC50,[23],1.9 µM (active)
O=C(NN=Cc1ccc(N(CCCl)CCCl)cc1)C(=O)c1c[nH]c2ccccc12,IC50,[24],45.1 µM (active)
same,IC50,[25],> 64.6 µM (inactive)
same,IC50,[26],> 100 µM (inactive)
same,IC50,[27],> 64.6 µM (inactive)
same,IC50,[28],25.5 µM (active)
same,IC50,[29],> 69.5 µM (inactive)
same,IC50,[30],> 69.5 µM (inactive)
O=C(c1ccc([N+](=O)[O-])o1)N1CCN(c2cccc(Cl)c2)CC1,EC50,[31],1.25 µM (active)
same,EC50,[32],12.4 µM (active)
COc1cc(OC)nc(N2Cc3ccccc3CC2C(=O)O)n1 (stereo unspecified),Ki,[33],0.794 µM (active)
same,Ki,[34],2.51 µM (active)
Cc1cc(Nc2cc(N3CCN(C)CC3)nc(C=Cc3ccccc3)n2)n[nH]1,Ki,[35],0.1 µM (active)
same,Ki,[36],0.316 µM (active)
same,Ki,[37],0.501 µM (active)
same,Ki,[38],0.316 µM (active)
same,Ki,[39],0.501 µM (active)
same,Ki,[40],0.501 µM (active)
same,Ki,[41],0.501 µM (active)
